# Measured values as given in patent US9951063B2, “8-(piperazin-1-yl)-1,2,3,4-tetrahydro-isoquinoline derivatives” (IDORSIA PHARMACEUTICALS LTD, priority 2014, dated 2018).
# Biological target: human CXCR3A (Homo sapiens (Human), UniProt P49682)
# Assay: FLIPR assay (inhibition of CXCL10-induced calcium signal)
# Assay type: cell-based
# Conditions: engineered CHO-K1 cells expressing human CXCR3A coupled to Galpha(16); Fluo-4-AM; CXCL10 agonist 20 nM; mean values where determined several times
# Procedure: The bioactivity of compounds is tested in a fluorometric imaging plate reader (FLIPR: Molecular Devices) using engineered CHO-K1 cells expressing the human CXCR3A (GenBank: AY242128) coupled to a G protein (Galpha(16)). Cells are plated the day prior to bioassay in F12 medium supplemented with 10% FBS and G418 and hygromycin antibiotics to maintain recombinant selection. At the day of bioassay, cells are washed and dye loaded for one hour with Fluo-4-AM (Invitrogen) in Hanks Balanced Salt Solution (Invitrogen), buffered with 20 mM Hepes at pH 7.4 and sodium bicarbonate (0.038%), containing 5 mM probenecid. This buffer, but lacking the dye and containing probenecid at a concentration of 2.5 mM, is also used for washing steps (wash buffer); or lacking both dye and probenecid but supplemented with 0.1% BSA for compound dilution steps (dilution buffer). Cells are washed free of excess dye and 60 microliter of wash buffer is added. Stock solutions of test compounds are made up at a concentration of 10 mM in DMSO, and serially diluted in dilution buffer to concentrations required for inhibition dose response curves. After a 10 minute incubation period at 37° C., 10 microliters of each compound dilution are transferred from a compound plate to the plate containing the recombinant cells in the FLIPR instrument according to the manufacturer's instructions. Following basal readings, 10 microliter CXCL10 agonist at a concentration of 20 nM (from Peprotech) is added, again using the FLIPR instrument. Changes in fluorescence are monitored before and after addition of the test compounds. Emission peak values above base level after CXCL10 addition are exported after base line subtraction.
# The calculated IC50 values may fluctuate depending on the daily assay performance. Fluctuations of this kind are known to those skilled in the art. In the case where IC50 values have been determined several times for the same compound, mean values are given.
# Sequence of human CXCR3A (P49682 whole entry): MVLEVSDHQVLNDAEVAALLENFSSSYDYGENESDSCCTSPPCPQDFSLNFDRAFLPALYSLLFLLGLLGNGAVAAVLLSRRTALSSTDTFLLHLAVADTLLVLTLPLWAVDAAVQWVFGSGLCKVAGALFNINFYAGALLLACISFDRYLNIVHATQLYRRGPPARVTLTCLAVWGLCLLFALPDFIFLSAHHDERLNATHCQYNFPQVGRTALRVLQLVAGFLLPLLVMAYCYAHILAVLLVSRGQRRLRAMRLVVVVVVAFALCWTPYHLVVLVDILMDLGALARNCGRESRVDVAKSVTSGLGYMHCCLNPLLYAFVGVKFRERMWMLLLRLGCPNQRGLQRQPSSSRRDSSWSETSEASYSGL
row,Compound,IC50
1,"Cc1cc(C)n(CC(=O)N2CCN(c3ccc(C(F)(F)F)c4c3CN(c3ncc(Cn5cccn5)s3)CC4)C[C@H]2C)n1 [Example 1, 2-(3,5-Dimethyl-pyrazol-1-yl)-1-{(R)-2-methyl-4-[2-(5-pyrazol-1-ylmethyl-thiazol-2-yl)-5-trifluoromethyl-1,2,3,4-tetrahydro-isoquinolin-8-yl]-piperazin-1-yl}-ethanone]",4.47 nM
2,"Cc1cc(C)n(CC(=O)N2CCN(c3ccc(C(F)(F)F)c4c3CN(c3nc(C(F)(F)F)cs3)CC4)C[C@H]2C)n1 [Example 2, 2-(3,5-Dimethyl-pyrazol-1-yl)-1-{(R)-2-methyl-4-[5-trifluoromethyl-2-(4-trifluoromethyl-thiazol-2-yl)-1,2,3,4-tetrahydro-isoquinolin-8-yl]-piperazin-1-yl}-ethanone]",6.07 nM
3,"CCc1csc(N2CCc3c(C(F)(F)F)ccc(N4CCN(C(=O)Cn5nc(C)cc5C)[C@H](C)C4)c3C2)n1 [Example 3, 2-(3,5-Dimethyl-pyrazol-1-yl)-1-{(R)-4-[2-(4-ethyl-thiazol-2-yl)-5-trifluoromethyl-1,2,3,4-tetrahydro-isoquinolin-8-yl]-2-methyl-piperazin-1-yl}-ethanone]",15.1 nM
4,"Cc1cc(C)n(CC(=O)N2CCN(c3ccc(C(F)(F)F)c4c3CN(c3nc(C(C)(C)C)cs3)CC4)C[C@H]2C)n1 [Example 4, 1-{(R)-4-[2-(4-tert.-Butyl-thiazol-2-yl)-5-trifluoromethyl-1,2,3,4-tetrahydro-isoquinolin-8-yl]-2-methyl-piperazin-1-yl}-2-(3,5-dimethyl-pyrazol-1-yl)-ethanone]",20.6 nM
5,"Cc1cc(C)n(CC(=O)N2CCN(c3ccc(C(F)(F)F)c4c3CN(c3nc(-c5ccccn5)cs3)CC4)C[C@H]2C)n1 [Example 5, 2-(3,5-Dimethyl-pyrazol-1-yl)-1-{(R)-2-methyl-4-[2-(4-pyridin-2-yl-thiazol-2-yl)-5-trifluoromethyl-1,2,3,4-tetrahydro-isoquinolin-8-yl]-piperazin-1-yl}-ethanone]",11 nM
6,"Cc1cc(C)n(CC(=O)N2CCN(c3ccc(C(F)(F)F)c4c3CN(c3ncc(Cl)s3)CC4)C[C@H]2C)n1 [Example 6, 1-{(R)-4-[2-(5-Chloro-thiazol-2-yl)-5-trifluoromethyl-1,2,3,4-tetrahydro-isoquinolin-8-yl]-2-methyl-piperazin-1-yl}-2-(3,5-dimethyl-pyrazol-1-yl)-ethanone]",18.1 nM
7,"Cc1cc(C)n(CC(=O)N2CCN(c3ccc(C(F)(F)F)c4c3CN(c3nc(C#N)cs3)CC4)C[C@H]2C)n1 [Example 7, 2-(8-{(R)-4-[2-(3,5-Dimethyl-pyrazol-1-yl)-acetyl]-3-methyl-piperazin-1-yl}-5-trifluoromethyl-3,4-dihydro-1H-isoquinolin-2-yl)-thiazole-4-carbonitrile]",29.2 nM
8,"Cc1cc(C)n(CC(=O)N2CCN(c3ccc(C(F)(F)F)c4c3CN(c3ncc(C#N)s3)CC4)C[C@H]2C)n1 [Example 8, 2-(8-{(R)-4-[2-(3,5-Dimethyl-pyrazol-1-yl)-acetyl]-3-methyl-piperazin-1-yl}-5-trifluoromethyl-3,4-dihydro-1H-isoquinolin-2-yl)-thiazole-5-carbonitrile]",8.88 nM
9,"Cc1ccc2nc(N3CCc4c(C(F)(F)F)ccc(N5CCN(C(=O)Cn6nc(C)cc6C)[C@H](C)C5)c4C3)sc2c1 [Example 9, 2-(3,5-Dimethyl-pyrazol-1-yl)-1-{(R)-2-methyl-4-[2-(6-methyl-benzothiazol-2-yl)-5-trifluoromethyl-1,2,3,4-tetrahydro-isoquinolin-8-yl]-piperazin-1-yl}-ethanone]",13.7 nM
10,"Cc1cc(C)n(CC(=O)N2CCN(c3ccc(C(F)(F)F)c4c3CN(c3nc5ccc(F)cc5s3)CC4)C[C@H]2C)n1 [Example 10, 2-(3,5-Dimethyl-pyrazol-1-yl)-1-{(R)-4-[2-(6-fluoro-benzothiazol-2-yl)-5-trifluoromethyl-1,2,3,4-tetrahydro-isoquinolin-8-yl]-2-methyl-piperazin-1-yl}-ethanone]",9.45 nM
11,"Cc1cc(C)n(CC(=O)N2CCN(c3ccc(C(F)(F)F)c4c3CN(c3nc5ccc(C#N)cc5s3)CC4)C[C@H]2C)n1 [Example 11, 2-(8-{(R)-4-[2-(3,5-Dimethyl-pyrazol-1-yl)-acetyl]-3-methyl-piperazin-1-yl}-5-trifluoromethyl-3,4-dihydro-1H-isoquinolin-2-yl)-benzothiazole-6-carbonitrile]",6.58 nM
12,"Cc1cc(C)n(CC(=O)N2CCN(c3ccc(C(F)(F)F)c4c3CN(c3nc5ccccc5o3)CC4)C[C@H]2C)n1 [Example 12, 1-[(R)-4-(2-Benzooxazol-2-yl-5-trifluoromethyl-1,2,3,4-tetrahydro-isoquinolin-8-yl)-2-methyl-piperazin-1-yl]-2-(3,5-dimethyl-pyrazol-1-yl)-ethanone]",9.39 nM
13,"Cc1cc(C)n(CC(=O)N2CCN(c3ccc(C(F)(F)F)c4c3CN(c3cnc(N(C)C)nc3)CC4)C[C@H]2C)n1 [Example 13, 1-{(R)-4-[2-(2-Dimethylamino-pyrimidin-5-yl)-5-trifluoromethyl-1,2,3,4-tetrahydro-isoquinolin-8-yl]-2-methyl-piperazin-1-yl}-2-(3,5-dimethyl-pyrazol-1-yl)-ethanone]",8.48 nM
14,"Cc1cc(C)n(CC(=O)N2CCN(c3ccc(C(F)(F)F)c4c3CN(c3ncc(Br)cn3)CC4)C[C@H]2C)n1 [Example 14, 1-{(R)-4-[2-(5-Bromo-pyrimidin-2-yl)-5-trifluoromethyl-1,2,3,4-tetrahydro-isoquinolin-8-yl]-2-methyl-piperazin-1-yl}-2-(3,5-dimethyl-pyrazol-1-yl)-ethanone]",27.7 nM
15,"Cc1cc(C)n(CC(=O)N2CCN(c3ccc(C(F)(F)F)c4c3CN(c3cnc(C5CC5)nc3)CC4)C[C@H]2C)n1 [Example 15, 1-{(R)-4-[2-(2-Cyclopropyl-pyrimidin-5-yl)-5-trifluoromethyl-1,2,3,4-tetrahydro-isoquinolin-8-yl]-2-methyl-piperazin-1-yl}-2-(3,5-dimethyl-pyrazol-1-yl)-ethanone]",3.58 nM
16,"C[C@@H]1CN(c2ccc(C(F)(F)F)c3c2CN(c2ccccc2)CC3)CCN1C(=O)Cn1cnc2cccnc21 [Example 16, 2-Imidazo[4,5-b]pyridin-3-yl-1-[(R)-2-methyl-4-(2-phenyl-5-trifluoromethyl-1,2,3,4-tetrahydro-isoquinolin-8-yl)-piperazin-1-yl]-ethanone]",6.19 nM
17,"COc1ncc(N2CCc3c(C(F)(F)F)ccc(N4CCN(C(=O)Cn5cnc6cccnc65)[C@H](C)C4)c3C2)cn1 [Example 17, 2-Imidazo[4,5-b]pyridin-3-yl-1-{(R)-4-[2-(2-methoxy-pyrimidin-5-yl)-5-trifluoromethyl-1,2,3,4-tetrahydro-isoquinolin-8-yl]-2-methyl-piperazin-1-yl}-ethanone]",9.2 nM
18,"COc1cccc(N2CCc3c(C(F)(F)F)ccc(N4CCN(C(=O)Cn5cnc6cccnc65)[C@H](C)C4)c3C2)c1 [Example 18, 2-Imidazo[4,5-b]pyridin-3-yl-1-{(R)-4-[2-(3-methoxy-phenyl)-5-trifluoromethyl-1,2,3,4-tetrahydro-isoquinolin-8-yl]-2-methyl-piperazin-1-yl}-ethanone]",13 nM
19,"COc1nc(OC)nc(N2CCc3c(C(F)(F)F)ccc(N4CCN(C(=O)Cn5cnc6cccnc65)[C@H](C)C4)c3C2)n1 [Example 19, 1-{(R)-4-[2-(4,6-Dimethoxy-[1,3,5]triazin-2-yl)-5-trifluoromethyl-1,2,3,4-tetrahydro-isoquinolin-8-yl]-2-methyl-piperazin-1-yl}-2-imidazo[4,5-b]pyridin-3-yl-ethanone]",11.7 nM
20,"CCOc1ncc(N2CCc3c(C(F)(F)F)ccc(N4CCN(C(=O)Cn5cnc6cccnc65)[C@H](C)C4)c3C2)cn1 [Example 20, 1-{(R)-4-[2-(2-Ethoxy-pyrimidin-5-yl)-5-trifluoromethyl-1,2,3,4-tetrahydro-isoquinolin-8-yl]-2-methyl-piperazin-1-yl}-2-imidazo[4,5-b]pyridin-3-yl-ethanone]",7.77 nM
21,"C[C@@H]1CN(c2ccc(C(F)(F)F)c3c2CN(c2ccc(Cl)cc2)CC3)CCN1C(=O)Cn1cnc2cccnc21 [Example 21, 1-{(R)-4-[2-(4-Chloro-phenyl)-5-trifluoromethyl-1,2,3,4-tetrahydro-isoquinolin-8-yl]-2-methyl-piperazin-1-yl}-2-imidazo[4,5-b]pyridin-3-yl-ethanone]",29.9 nM
22,"CCCc1ncc(N2CCc3c(C(F)(F)F)ccc(N4CCN(C(=O)Cn5cnc6cccnc65)[C@H](C)C4)c3C2)cn1 [Example 22, 2-Imidazo[4,5-b]pyridin-3-yl-1-{(R)-2-methyl-4-[2-(2-propyl-pyrimidin-5-yl)-5-trifluoromethyl-1,2,3,4-tetrahydro-isoquinolin-8-yl]-piperazin-1-yl}-ethanone]",10.7 nM
23,"COc1ncc(N2CCc3c(C(F)(F)F)ccc(N4CCN(C(=O)Cn5nc(C)nc5C)[C@H](C)C4)c3C2)cn1 [Example 23, 2-(3,5-Dimethyl-[1,2,4]triazol-1-yl)-1-{(R)-4-[2-(2-methoxy-pyrimidin-5-yl)-5-trifluoromethyl-1,2,3,4-tetrahydro-isoquinolin-8-yl]-2-methyl-piperazin-1-yl}-ethanone]",17.1 nM
